Data taken from patent publication US20260232750A1, “COMPOSITION AND METHOD FOR INHIBITING ADVANCED GLYCATION END PRODUCTS” (ACCESS BUSINESS GROUP INTERNATIONAL LLC, priority 2022, published 2026).
Where “and” joins values, the source holds several entries; their conditions need not be identical. Identical values can stand only once. Entries after “also recorded” stand apart in the source; their conditions may differ. Like-named read-outs stand apart in the source and are kept apart here.

Key:
type I collagen [1] = assay: Collagen type I in HDFs by immunofluorescence; assay type: cell-based, human; details: positive drug, VC 200 μg/ml, 48 h, IF
Procedure: (§1) HDFs were cultured in DMEM with 10% (v/v) FBS and 1% PS at 37° C. in a humidified 5% CO2 incubator. Cells were subcultured using pancreatin solution after reaching confluence. All experiments were performed between the third and eighth passages.
(§2) The synthesis of collagen types I and III was detected using IF and ELISA. HDFs were digested and seeded in a 24-well culture plate on slides at a density of 50,000 cells/well in a complete medium. After reaching 80% confluency, cells were starved with the medium in the absence of serum for 16 h. Cells were then treated with positive controls or active samples (prepared in medium without serum) for an additional 48 h. For analysis and visualisation of types I and III collagens, the supernatants and remaining cell slides were both collected and analysed using ELISA kits and the IF staining method, respectively.
(§3) Collected supernatants were centrifuged at 10,000 rpm for 10 min and used for types I and III collagen ELISA, according to the manufacturer's protocol. The remaining cell slides were washed once with PBS and fixed in polyformaldehyde overnight at 4° C. Subsequently, the slides were treated with 0.5% Triton-X100 for 5 min. After washing, cells were blocked with 1% BSA at room temperature for 1 h. […] ImageJ software was used to quantify collagen expression from different images randomly selected in each group.

type III collagen = assay: Collagen type III in HDFs by immunofluorescence; assay type: cell-based, human; details: positive drug, VC 200 μg/ml, 48 h, IF
Procedure: as §1, §2, §3

type I collagen [2] = assay: Extracellular collagen type I of HDFs by ELISA; assay type: cell-based, human; details: VC, 48 h, culture medium
Procedure: as §1, §2, §3

[3] = test system: fluorescent AGEs (human serum albumin glycated with D-fructose and glucose); assay: Non-enzymatic glycation of HSA, determination of fluorescent AGEs; assay type: biochemical; details: for The inhibition rate of fluorescent AGE 360/453 nm (%): single replicate
Procedure: The anti-glycative ability of samples were assessed by measuring the amounts of fluorescent AGEs. 100 μL human serum albumin (4 mg/ml HSA) was glycated with 100 μL D-fructose (0.05 mol/L) and 100 μL glucose (0.05 mol/L) in the presence of samples in potassium phosphate buffer (0.2 mol/L, pH7.4, 0.06% NaN3) and incubated at 50° C. for […]. The incubated solutions were then used for the following assays. Rutin was the positive control.
The fluorescence intensity of the incubated solutions under the λex/λem=360/453 nm was recorded on microplate reader. The inhibition rate of fluorescent AGEs was calculated by the following equation: […]
where A1 is the fluorescence intensity of glycation system without samples; A2 is the fluorescence intensity of glycation system without HSA and samples; A3 is the fluorescence intensity of glycation system with HSA, sugar and samples; and A4 is the fluorescence intensity of glycation system without HSA.

DPPH· scavenging assay = assay type: biochemical
[4] = FRAP total antioxidant capacity assay; assay type: biochemical
Procedure: Fast colourimetric methods were slightly modified for the in vitro assessment of DPPH· scavenging, ABTS·+ decolourisation capacity, and total antioxidant capacity of FRAP. The stock solutions of derivatisation reagents were diluted as follows before measurement: DPPH was diluted with absolute ethanol until the absorbance was 0.8±0.05 at λ=517 nm. ABTS working solution was prepared with phosphate buffer (0.2 M, pH 7.4) to display absorbance of 0.8±0.05 at λ=729 nm, based on a previous study. The FRAP solution was prepared according to the instructions of the FRAP kit. Absorbances were measured using an automatic microplate reader (Molecular Group Ltd., USA), and all analyses were performed using 96-well plates. All measurements were performed in triplicate, and Trolox was used as a positive control.
For total antioxidant capacity, 180 μl of FRAP solution was mixed with 5 μl of sample solution, and the absorbance was measured after 5 min at […] with PBS as the negative control. FeSO4 solutions (0.15, 0.3, 0.6, 0.9, 1.2, and 1.5 mM) were used for the calibration curve. The FRAP value represents the corresponding concentration of FeSO4 solutions (mM FeSO4). The regression equation from the standard curve was used to calculate the equivalent concentration 1 (EC1) of each sample. EC1 is defined as the concentration of the test sample with an absorbance equivalent to that of 1.0 mmol/L of FeSO4 solution, determined by its calibration curve.

COX-2 = target: T1, COX-2 (Homo sapiens, UniProt P35354); assay: Anti-COX-2 assay (COX-2 Inhibitor Screening Kit); assay type: biochemical
T1 construct: purchased Beyotime S0168
T1 sequence (P35354 18-604): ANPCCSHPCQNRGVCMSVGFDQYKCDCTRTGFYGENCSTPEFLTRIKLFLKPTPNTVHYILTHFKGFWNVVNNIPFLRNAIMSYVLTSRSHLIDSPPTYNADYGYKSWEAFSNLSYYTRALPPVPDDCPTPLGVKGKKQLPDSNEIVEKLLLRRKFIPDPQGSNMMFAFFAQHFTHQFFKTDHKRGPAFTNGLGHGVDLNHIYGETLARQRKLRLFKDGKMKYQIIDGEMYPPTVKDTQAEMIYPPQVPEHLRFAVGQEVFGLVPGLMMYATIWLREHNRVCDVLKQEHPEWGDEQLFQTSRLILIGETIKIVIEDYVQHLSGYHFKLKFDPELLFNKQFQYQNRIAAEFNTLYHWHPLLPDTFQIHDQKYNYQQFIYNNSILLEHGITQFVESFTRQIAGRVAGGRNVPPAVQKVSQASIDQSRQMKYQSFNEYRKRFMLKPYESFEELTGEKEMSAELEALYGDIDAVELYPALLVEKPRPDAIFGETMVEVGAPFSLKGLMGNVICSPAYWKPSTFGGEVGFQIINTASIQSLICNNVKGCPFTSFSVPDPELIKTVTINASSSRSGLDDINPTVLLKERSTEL
Procedure: Anti-inflammatory activity was assessed by measuring COX-2 enzymatic inhibition on the basis of a described method by using the COX-2 Inhibitor Screening Kit (Beyotime, No. S0168). Celecoxib, a COX-2 inhibitor, was used as a positive control.

[5] = test system: fluorescent AGEs (BSA-fructose/glucose system); assay: Fluorescent AGEs formation in a BSA-fructose/glucose system; assay type: biochemical, bovine; details: read-out: IC50, AGE formation
Procedure: The formation of total fluorescent AGEs in glycated samples was assessed by determining their fluorescent intensities at an excitation/emission wavelength of 350/450 nm, as previously described. Glycated protein was prepared in vitro by incubating BSA in the presence of D-glucose (GLC) and D-fructose (FRC). The DOF extract and specific standards were dissolved in DMSO:water (1:4). BSA (4 mg/ml, 100 μl) was preliminary mixed with 50 μl of GLC (0.5 M) and 50 μl of FRC (0.5 M) in 20 mM sodium phosphate buffer (pH 7.4), and then 100 μl samples were added in the 96-well plate and incubated at 37.5° C. for 7 days. All solutions were prepared under sterile conditions and filtered using a 0.22-μm syringe before incubation. The assay was performed in triplicate, and AG was used as a positive control.

[6] = Online UPLC-PDA-MS-ABTS·+ scavenging (post-column derivatisation); assay type: biochemical; details: online profiling of DOF extract
Procedure: Online identification of antioxidant components of DOF extract was performed using a UPLC system (Milford, MA, USA) consisting of a Waters photodiode array detector and a Waters postcolumn derivatisation system supplying fresh ABTS solution (UPLC-PDA-QDa-ABTS). […] The detection wavelengths were set at 280 and 734 nm, and the injection volume of the sample was 10 μl.
To detect radical scavengers, the UPLC system was coupled with a Waters pump, which supplied freshly prepared ABTS·+ solution into a reaction coil (15 m, 0.25 mm ID) with a flow rate of 0.2 ml/min at 37° C. Negative peaks were recorded based on a decrease of absorbance at 729 nm after the reaction of individual compounds with the ABTS·+ radical. For preliminary identification of compounds, a Waters Acquity QDa mass detector in negative ionisation mode was connected in series to PDA with the following parameters: electrospray ion source; cone voltage, 15 V; atomiser, N2; and scanning range, 100-800 m/z.

SMILES: O=C1O[C@H]([C@@H](O)CO)C(O)=C1O [vitamin C]
- Collagen type I expression, % of control (type I collagen [1]): 190.20 % of control
- Collagen type III expression, % of control (type III collagen): 125.90 % of control
- increase of secreted collagen type I levels (type I collagen [2]): 21.94%

SMILES: C[C@@H]1O[C@@H](OC[C@H]2O[C@@H](Oc3c(-c4ccc(O)c(O)c4)oc4cc(O)cc(O)c4c3=O)[C@H](O)[C@@H](O)[C@@H]2O)[C@H](O)[C@H](O)[C@H]1O [Compound 24, Rutin]
- Average % inhibition ([3]; 3.125 μg/ml): 2.02%
- The inhibition rate of fluorescent AGE 360/453 nm (%) ([3]; 3.125 μg/ml): 2.34% and −3.34% and 7.07%
- Average % inhibition ([3]; 6.25 μg/ml): 22.00%
- The inhibition rate of fluorescent AGE 360/453 nm (%) ([3]; 6.25 μg/ml): 18.13% and 25.69% and 22.17%
- Average % inhibition ([3]; 12.5 μg/ml): 41.15%
- The inhibition rate of fluorescent AGE 360/453 nm (%) ([3]; 12.5 μg/ml): 35.84% and 42.05% and 45.57%
- Average % inhibition ([3]; 25 μg/ml): 61.91%
- The inhibition rate of fluorescent AGE 360/453 nm (%) ([3]; 25 μg/ml): 55.85% and 64.92% and 64.97%
- Average % inhibition ([3]; 50 μg/ml): 75.80%
- The inhibition rate of fluorescent AGE 360/453 nm (%) ([3]; 50 μg/ml): 74.72% and 79.59% and 73.08%
- Average % inhibition ([3]; 100 μg/ml): 81.90%
- The inhibition rate of fluorescent AGE 360/453 nm (%) ([3]; 100 μg/ml): 81.88% and 81.51% and 82.32%
- Average % inhibition ([3]; 200 μg/ml): 85.69%
- The inhibition rate of fluorescent AGE 360/453 nm (%) ([3]; 200 μg/ml): 84.54% and 85.94% and 86.58%
- Average % inhibition ([3]; 400 μg/ml): 91.19%
- The inhibition rate of fluorescent AGE 360/453 nm (%) ([3]; 400 μg/ml): 90.91% and 91.13% and 91.53%
- antioxidant ability by DPPH (in words) (DPPH· scavenging assay): great antioxidant potency
- antioxidant ability by DPPH (in words) (DPPH· scavenging assay; listed as rutin): selective and significant antioxidant abilities
- antioxidant ability by FRAP (in words) [4]: great antioxidant potency
- FRAP EC1 ([4]; Table 11, mean ± SD, n = 3): 205 µM
- antioxidant ability by FRAP (in words) ([4]; listed as rutin): selective and significant antioxidant abilities
- COX-2 inhibition (in words) (COX-2): great COX-2 inhibition; also recorded: outstanding COX-2 inhibitory effects
- COX-2 inhibition (in words) (COX-2; listed as rutin): potent COX-2 inhibitory capacity
- IC50 [5]: 222 ± 13.5 µM
- ABTS radical scavenging by size of negative peaks at 734 nm (in words) [6]: strongest ABTS radical scavengers
